Converted amounts (≈) assume the structure as drawn.
Tested on: Mycobacterium tuberculosis
Experiment: Antimycobacterial activity against Mycobacterium tuberculosis H37Rv ATCC 27294 by agar dilution method
Format: functional

First: COc1ccc(NCC(O)COc2ccc3c(c2)OC2(CCCC2)CC3=O)cc1 (stereo not drawn)
Second: COc1ccc(NCC(O)COc2ccc3c(c2)OC2(CCCCC2)CC3=O)cc1 (stereo not drawn)
The MIC of the first is 2-fold higher: 25 µg/mL (≈ 62.9 µM) for the first, 12.5 µg/mL (≈ 30.4 µM) for the second.

Going from `CC(C)c1ccc(NCC(O)COc2ccc3c(c2)OC2(CCN(C(=O)OC(C)(C)C)CC2)CC3=O)cc1` (stereo not drawn) to `COc1ccc(NCC(O)COc2ccc3c(c2)OC2(CCN(C(=O)OC(C)(C)C)CC2)CC3=O)cc1` (stereo not drawn), the MIC rises from 12.5 µg/mL (≈ 23.8 µM) to greater than 25 µg/mL.

First: Cc1ccccc1NCC(O)COc1ccc2c(c1)OC1(CCCC1)CC2=O (stereo not drawn)
Second: Cc1ccccc1NCC(O)COc1ccc2c(c1)OC1(CCCCC1)CC2=O (stereo not drawn)
The MIC of the first is 2-fold higher: 12.5 µg/mL (≈ 32.8 µM) for the first, 6.25 µg/mL (≈ 15.8 µM) for the second.

First: O=C1CC2(CCCC2)Oc2cc(OCC(O)CNc3ccccc3Cl)ccc21 (stereo not drawn)
Second: COc1ccccc1NCC(O)COc1ccc2c(c1)OC1(CCCC1)CC2=O (stereo not drawn)
The MIC of the first is 2-fold lower: 6.25 µg/mL (≈ 15.6 µM) for the first, 12.5 µg/mL (≈ 31.4 µM) for the second.

Going from `CC(C)c1ccccc1NCC(O)COc1ccc2c(c1)OC1(CCCC1)CC2=O` (stereo not drawn) to `COc1ccccc1NCC(O)COc1ccc2c(c1)OC1(CCCCC1)CC2=O` (stereo not drawn), the MIC rises from 6.25 µg/mL (≈ 15.3 µM) to 12.5 µg/mL (≈ 30.4 µM) (2-fold).

Going from `O=C1CC2(CCCC2)Oc2cc(OCC(O)CNc3cccc(F)c3)ccc21` (stereo not drawn) to `O=C1CC2(CCCC2)Oc2cc(OCC(O)CNc3ccccc3)ccc21` (stereo not drawn), the MIC rises from 3.13 µg/mL (≈ 8.12 µM) to 25 µg/mL (≈ 68 µM) (8-fold).

`CC(C)c1ccc(NCC(O)COc2ccc3c(c2)OC2(CCCC2)CC3=O)cc1` (stereo not drawn) and `CC(C)c1ccc(NCC(O)COc2ccc3c(c2)OC2(CCCCC2)CC3=O)cc1` (stereo not drawn) are the same in MIC: 6.25 µg/mL (≈ 15.3 µM) for the first, 6.25 µg/mL (≈ 14.8 µM) for the second.

Compared with `O=C1CC2(CCCC2)Oc2cc(OCC(O)CNc3ccc([N+](=O)[O-])cc3O)ccc21` (stereo not drawn), `O=C1CC2(CCCCC2)Oc2cc(OCC(O)CNc3ccccc3)ccc21` (stereo not drawn) is 2-fold higher in MIC: 6.25 µg/mL (≈ 14.6 µM) for the first, 12.5 µg/mL (≈ 32.8 µM) for the second.

First: COc1ccc(CNCC(O)COc2ccc3c(c2)OC2(CCCC2)CC3=O)cc1 (stereo not drawn)
Second: O=C1CC2(CCCC2)Oc2cc(OCC(O)CN3CCOCC3)ccc21 (stereo not drawn)
The MIC of the first is lower: 12.5 µg/mL (≈ 30.4 µM) for the first, greater than 25 µg/mL for the second.

First: CC(C)(C)OC(=O)N1CCC2(CC1)CC(=O)c1ccc(OCC(O)CNc3ccccc3)cc1O2 (stereo not drawn)
Second: Cc1ccccc1NCC(O)COc1ccc2c(c1)OC1(CCN(C(=O)OC(C)(C)C)CC1)CC2=O (stereo not drawn)
The MIC of the first is higher: greater than 25 µg/mL for the first, 25 µg/mL (≈ 50.3 µM) for the second.

First: COc1ccccc1NCC(O)COc1ccc2c(c1)OC1(CCN(C(=O)OC(C)(C)C)CC1)CC2=O (stereo not drawn)
Second: CO[C@H]1/C=C/O[C@@]2(C)Oc3c(C)c(O)c4c(O)c(c(/C=N/N5CCN(C)CC5)c(O)c4c3C2=O)NC(=O)/C(C)=C\C=C\[C@H](C)[C@H](O)[C@@H](C)[C@@H](O)[C@@H](C)[C@H](OC(C)=O)[C@@H]1C [RIFAMPIN]
The MIC of the first is 120-fold higher: 25 µg/mL (≈ 48.8 µM) for the first, 0.2 µg/mL (≈ 0.243 µM) for the second.

`CC[C@@H](CO)NCCN[C@@H](CC)CO` [ETHAMBUTOL] was tested, and the MIC was 1.56 µg/mL (≈ 7.64 µM).
